Reference: paper PMC8000041, “New Insights into the Metabolism of the Flavanones Eriocitrin and Hesperidin: A Comparative Human Pharmacokinetic Study” (Antioxidants, 2021)

Assays:
[1] = Urinary excretion of flavanone-derived metabolites after single intake of lemon or orange extract (UPLC-ESI-QTOF-MS); format: in vivo, human; conditions: for Occurrence Urine LE (number of volunteers in whom the metabolite was detected): after consuming lemon extract; for Occurrence Urine LE (number of volunteers in whom the metabolite was detected) / Occurrence Urine OE (number of volunteers in whom the metabolite was detected): n = 16 volunteers; for Occurrence Urine OE (number of volunteers in whom the metabolite was detected): after consuming orange extract; for Urinary excretion F1: urine fraction 0-4 h; for Urinary excretion F1 / Urinary excretion Total F / Urinary excretion F2 / Urinary excretion F3 / Urinary excretion F4: mean ± SD; for Urinary excretion Total F: sum of fractions F1-F4 (24 h); for Urinary excretion F2: urine fraction 4-8 h; for Urinary excretion F3: urine fraction 8-10 h; for Urinary excretion F4: urine fraction 10-24 h
Description: Secondary endpoints involved the evaluation of post-prandial changes in several biomarkers dealing with metabolism, inflammation, and oxidative stress after a high-fat-high-sugars meal. The design was a randomized pharmacokinetic, double-blind, crossover, single-dose trial consisted of 2 test-phases. The volunteers were randomly allocated into two groups using a computerized random number list. Each group consumed one of the citrus extracts by following a test-phase that lasted for 1 day for blood sampling and urine collection, a 2-week washout period between each test phase, and crossover before consuming the other extract. The volunteers were instructed to avoid the consumption of flavanone-containing products, from a list provided by the researchers, for 1 week before the study and during the wash-out phase (citrus fruit juices, tomatoes, tomato-based sauces (like ‘ketchup’), peppers, almonds, etc.). […] The 3 capsules provided a total of 1.95 g orange extract, containing 260 mg hesperidin, and 3.1 g lemon extract, containing 260 mg eriocitrin. […] Untreated urine samples were aliquoted and frozen at −80 °C for up to 4 weeks until analyses, avoiding freeze-thaw cycles to avoid metabolites’ deconjugation. Moreover, three measurements of blood pressure and heart rate were taken before each time-point of blood withdrawal. […] A previously validated method for analyzing phenolic metabolites in biological samples, including flavanone-derived metabolites, was used. […] After centrifugation at 14,000× g for 10 min at 4 °C, the supernatant was evaporated in a speed vacuum concentrator. Finally, samples were re-suspended in 100 µL of methanol, filtered through a 0.22 µm cellulose filters before analysis by UPLC- ESI-QTOF-MS. […] A targeted screening strategy was applied to identify metabolites that could be present after consuming the citrus extracts. Twenty-eight possible compounds were browsed in all the samples. The list of compounds included the polyphenols present in the extracts, with particular focus on the flavanone rutinosides hesperidin and eriocitrin, their respective aglycones hesperetin, and eriodictyol, as well as their derived phase-II conjugates (glucuronides, sulfates, sulfoglucuronides, etc.). The exact mass of each proposed compound was extracted using an extraction window of 0.01 m/z. The metabolites hesperetin 7-O-glucuronide, hesperetin 3′-O-glucuronide, hesperetin 3-O-sulfate, naringenin 4′-O-glucuronide, and naringenin 7′-O-glucuronide were quantified with their corresponding standards. […] The parent phenolic compounds were quantified with their corresponding standards. In the case of some relevant conjugated metabolites, which standards were not available (eriodictyol and homoeriodictyol conjugates), their quantification was achieved by using relative response factors (RRFs) as previously described. Briefly, RRFs are useful to check the different responses of metabolites in the mass spectrometer vs. their UV signal. While the ionization response of free vs. conjugated forms is usually very different, their UV signal response is quite similar. To this purpose, we injected in a HPLC-DAD-ESI-Q (MS) the plasma samples (n = 5) with the highest concentrations of those conjugated metabolites. Concentrations were calculated by integrating the area from their corresponding UV peaks and compared with the UV peak area of a known concentration of their corresponding available parent compounds (eriodictyol and homoeriodictyol). The concentrations calculated were used to compare the MS response for each conjugated-aglycone pair.

[2] = Plasma metabolites and pharmacokinetics after single intake of lemon or orange extract (UPLC-ESI-QTOF-MS, non-compartmental analysis); format: in vivo, human; conditions: for Occurrence Plasma LE (number of volunteers in whom the metabolite was detected): after consuming lemon extract; for Occurrence Plasma LE (number of volunteers in whom the metabolite was detected) / Occurrence Plasma OE (number of volunteers in whom the metabolite was detected): n = 16 volunteers; for Occurrence Plasma OE (number of volunteers in whom the metabolite was detected): after consuming orange extract; for AUC(0-t) / Cmax / Tmax: after lemon extract, mean ± SD
Description: Secondary endpoints involved the evaluation of post-prandial changes in several biomarkers dealing with metabolism, inflammation, and oxidative stress after a high-fat-high-sugars meal. The design was a randomized pharmacokinetic, double-blind, crossover, single-dose trial consisted of 2 test-phases. The volunteers were randomly allocated into two groups using a computerized random number list. Each group consumed one of the citrus extracts by following a test-phase that lasted for 1 day for blood sampling and urine collection, a 2-week washout period between each test phase, and crossover before consuming the other extract. The volunteers were instructed to avoid the consumption of flavanone-containing products, from a list provided by the researchers, for 1 week before the study and during the wash-out phase (citrus fruit juices, tomatoes, tomato-based sauces (like ‘ketchup’), peppers, almonds, etc.). […] The 3 capsules provided a total of 1.95 g orange extract, containing 260 mg hesperidin, and 3.1 g lemon extract, containing 260 mg eriocitrin. […] Plasma samples were obtained by centrifugation of peripheral venous blood at 14,000× g for 15 min at 4 °C and immediately frozen at −80 °C. Glucose, total cholesterol, HDL-cholesterol, LDL-cholesterol, triglycerides, insulin, homeostatic model assessment insulin resistance (HOMA-IR), gamma-glutamyl transferase (GGT), and alanine aminotransferase (ALT) were determined as previously reported. […] A previously validated method for analyzing phenolic metabolites in biological samples, including flavanone-derived metabolites, was used. […] After centrifugation at 14,000× g for 10 min at 4 °C, the supernatant was evaporated in a speed vacuum concentrator. Finally, samples were re-suspended in 100 µL of methanol, filtered through a 0.22 µm cellulose filters before analysis by UPLC- ESI-QTOF-MS. A targeted screening strategy was applied to identify metabolites that could be present after consuming the citrus extracts. Twenty-eight possible compounds were browsed in all the samples. The list of compounds included the polyphenols present in the extracts, with particular focus on the flavanone rutinosides hesperidin and eriocitrin, their respective aglycones hesperetin, and eriodictyol, as well as their derived phase-II conjugates (glucuronides, sulfates, sulfoglucuronides, etc.). The exact mass of each proposed compound was extracted using an extraction window of 0.01 m/z. The metabolites hesperetin 7-O-glucuronide, hesperetin 3′-O-glucuronide, hesperetin 3-O-sulfate, naringenin 4′-O-glucuronide, and naringenin 7′-O-glucuronide were quantified with their corresponding standards. […] The parent phenolic compounds were quantified with their corresponding standards. In the case of some relevant conjugated metabolites, which standards were not available (eriodictyol and homoeriodictyol conjugates), their quantification was achieved by using relative response factors (RRFs) as previously described. Briefly, RRFs are useful to check the different responses of metabolites in the mass spectrometer vs. their UV signal. While the ionization response of free vs. conjugated forms is usually very different, their UV signal response is quite similar. To this purpose, we injected in a HPLC-DAD-ESI-Q (MS) the plasma samples (n = 5) with the highest concentrations of those conjugated metabolites. Concentrations were calculated by integrating the area from their corresponding UV peaks and compared with the UV peak area of a known concentration of their corresponding available parent compounds (eriodictyol and homoeriodictyol). The concentrations calculated were used to compare the MS response for each conjugated-aglycone pair. Statistical analyses were carried out using the SPSS Software, version 23.0 (SPSS Inc., Chicago, IL, USA). Data are expressed as mean ± SD. The empirical distribution of data with the normality assumption was tested with the Shapiro-Wilk test. […]

[3] = design: method as in PMID 28970059; conditions: eriocitrin vs. hesperidin ref 28; cited from earlier work
[4] = lemon extract (3.1 g, 260 mg eriocitrin)

Row | Compound | Occurrence Urine LE (number of volunteers in whom the metabolite was detected) [1] | Occurrence Urine OE (number of volunteers in whom the metabolite was detected) [1] | Occurrence Plasma LE (number of volunteers in whom the metabolite was detected) [2] | Occurrence Plasma OE (number of volunteers in whom the metabolite was detected) [2] | Solubility [3] | Urinary excretion F1 [1, 4] [µg/mg creatinine] | Urinary excretion Total F ([1]; lemon extract) [µg/mg creatinine] | Urinary excretion F2 ([1]; lemon extract) [µg/mg creatinine] | Urinary excretion F3 ([1]; lemon extract) [µg/mg creatinine] | Urinary excretion F4 ([1]; lemon extract) [µg/mg creatinine] | Urinary excretion F1 ([1]; orange extract (1.95 g, 260 mg hesperidin)) [µg/mg creatinine] | Urinary excretion Total F ([1]; orange extract) [µg/mg creatinine] | Urinary excretion F2 ([1]; orange extract) [µg/mg creatinine] | Urinary excretion F3 ([1]; orange extract) [µg/mg creatinine] | Urinary excretion F4 ([1]; orange extract) [µg/mg creatinine] | AUC(0-t) [2] [µM·h] | Cmax [2] [nM] | Tmax [2] [h]
1 | COc1cc([C@@H]2CC(=O)c3c(O)cc(O)cc3O2)ccc1O [M16, Homoeriodictyol] | 12 | 1 | 15 | 1 |  |  |  |  |  |  |  |  |  |  |  |  |  | 
2 | COc1ccc([C@@H]2CC(=O)c3c(O)cc(O)cc3O2)cc1O [M17, Hesperetin] | 5 | 8 | 8 | 3 |  |  |  |  |  |  |  |  |  |  |  |  |  | 
3 | C[C@@H]1O[C@@H](OC[C@H]2O[C@@H](Oc3cc(O)c4c(c3)O[C@H](c3ccc(O)c(O)c3)CC4=O)[C@H](O)[C@@H](O)[C@@H]2O)[C@H](O)[C@H](O)[C@H]1O [eriocitrin, Eriocitrin] |  |  |  |  | higher solubility |  |  |  |  |  |  |  |  |  |  |  |  | 
4 | Eriodictyol sulfate [M13] | 16 | 12 | 16 | 10 |  | 4.6 ± 5.0 | 32.6 ± 36.5 | 14.6 ± 17.3 | 11.9 ± 12.6 | 1.5 ± 1.5 | 0.02 ± 0.01 | 0.6 ± 0.9 | 0.1 ± 0.1 | 0.2 ± 0.4 | 0.3 ± 0.4 | 6.12 ± 6.631 | 1710 ± 1510 | 5.7 ± 2.5
5 | Eriodictyol sulfoglucuronide [M9] | 5 | 0 | 15 | 0 |  |  |  |  |  |  |  |  |  |  |  |  |  | 
6 | Hesperetin sulfoglucuronide [M11] | 0 | 7 | 0 | 8 |  |  |  |  |  |  |  |  |  |  |  |  |  | 
7 | Homoeriodictyol glucuronide [M6] | 16 | 3 | 16 | 3 |  | 13.9 ± 16.2 | 106 ± 171 | 48.1 ± 90.0 | 37.2 ± 56.9 | 6.8 ± 8.0 |  |  |  |  |  | 3.133 ± 4.17 | 780 ± 863 | 6.1 ± 2.4
8 | Homoeriodictyol sulfate [M10] | 16 | 0 | 16 | 3 |  | 3.8 ± 3.2 |  | 4.0 ± 5.5 | 3.6 ± 4.1 | 0.5 ± 0.4 |  |  |  |  |  | 1.778 ± 2.257 | 479 ± 524 | 6.5 ± 2.2
